In brackets after ≈: the same amount, converted by molar mass.
How the values were obtained:
[1] = system: Staphylococcus aureus; assay: Antibacterial activity against Staphylococcus aureus ATCC 25923 after 24 hrs by agar dilution method; type: functional; conditions: ATCC 25923, 24 h
[2] = Chemical stability up to 60 degC after 24 hrs; type: physicochemical
[3] = Toxicity in human dermal fibroblasts; type: cell-based; conditions: fibroblast
[4] = system: Staphylococcus aureus; assay: Antibacterial activity against methicillin-resistant Staphylococcus aureus ATCC 43300 after 24 hrs by agar dilution method; type: functional; conditions: ATCC 43300, 24 h
[5] = system: Serum; assay: Stability in human blood serum after 24 hrs; type: ADME, cell-free

SMILES | MIC [1] | Activity [2] | Activity [3] | MIC [4] | Activity [5]
C=CC(=O)OC1C(=O)N(SC)C1c1ccccc1Cl (stereo not given) | 128 µg/mL (≈ 430 µM) | Stable | Non-toxic | 128 µg/mL (≈ 430 µM) | Stable
C=CC(=O)OCCOC(=O)CCC(=O)OC1C(=O)N(SC)C1c1ccccc1Cl (stereo not given) | 64 µg/mL (≈ 145 µM) | Stable | Non-toxic | 64 µg/mL (≈ 145 µM) | Stable
C=CC(=O)Oc1ccc(C2C(OC(=O)C=C)C(=O)N2SC)cc1 (stereo not given) | 128 µg/mL (≈ 384 µM) | Stable | Non-toxic | 128 µg/mL (≈ 384 µM) | Stable
C=CC(=O)Oc1ccc(C2C(OC)C(=O)N2SC)cc1 (stereo not given) | 128 µg/mL (≈ 436 µM) | Stable | Non-toxic | 128 µg/mL (≈ 436 µM) | Stable
